# Tested on: HeMnDP melanocyte monoculture
# Assay: Melanin content assay in melanocyte monoculture (after Calcein-AM viability assay)
# Format: cell-based
# Conditions: 72 hours
# Experimental: All samples were analysed to determine the extent of their ability to bring about skin lightening by checking the cell viability and melanin content assay. Set Up of Cultures Involved the Following Steps: • ([…] per well (single wells/treatment) in 24-well Nunc plates on Day-0 were seeded to establish a melanocyte monoculture system. • (ii) The volume of media per well was limited to 1 ml of Melanocyte Growth Media (MGM) • (iii) 24 hours later, fresh media containing actives was added again. At this stage also, 1 ml of MGM was used. • (iv) Plates were incubated for 72 hours at 37° C. in a CO2 incubator. • (v) At the end, the plates were sent for Calcein assay, described hereinafter, followed by melanin content estimation. Calcein-AM Viability Assay • (i) The spent media was removed from each well of a 24-well plate and rinsed once with 400 μl of 1×PBS-Ca-Mg (see preparation below), including wells without cells (Control wells). • (ii) One μM Calcein-AM (working stock) in 1×PBS-Ca-Mg from 1 mM stock (e.g. 10 μl of 1 mM Calcein stock in 100% DMSO in 10 ml of 1×PBS-Ca-Mg) was prepared. About 400 μl of Calcein-AM working stock solution was added to each well, including the controls cells. • (iii) The plates were covered with aluminum foil and were incubated for 30 minutes in a CO2 incubator. • (iv) In the meantime, fluorescence was measured (excitation at 490 nm and emission at 520 nm) using TECAN® instrument after 30 minutes of dye incubation. • (v) After reading the plates, the buffer containing Calcein was removed and melanin content assay was then carried out. […] The % inhibition was then calculated for each case. Higher values of % inhibition indicate an active ingredient's potential to serve as a skin lightening agent. The tests of Example 2 were repeated with isonicotinamide instead of picolinamide.
compound,measurement,setting,value
"CCCCCCc1ccc(O)cc1O [Ex-B, 4-hexyl resorcinol]",Inhibition in melanin synthesis,"4-hexyl Resorcinol 0.192 μg, Example 2",3%
same,Inhibition in melanin synthesis,"4-hexyl Resorcinol 0.192 μg, Example 3",3%
same,Inhibition in melanin synthesis,"4-hexyl Resorcinol 1.92 μg, Example 2",31%
same,Inhibition in melanin synthesis,"4-hexyl Resorcinol 1.92 μg, Example 3",31%
"NC(=O)c1ccccn1 [Ex-D, Picolinamide]",Inhibition in melanin synthesis,picolinamide 122 μg,1%
same,Inhibition in melanin synthesis,picolinamide 1220 μg,27%
"NC(=O)c1ccncc1 [Ex-I, Isonicotinamide]",Inhibition in melanin synthesis,Isonicotinamide 122 μg,−16%
same,Inhibition in melanin synthesis,Isonicotinamide 1220 μg,10%

# From US20190307664A1, “METHOD AND COSMETIC COMPOSITION FOR ENHANCED TRANSDERMAL DELIVERY OF ALKYL SUBSTITUTED RESORCINOL” (CONOPCO, INC., D/B/A UNILEVER, priority 2016, published 2019)
